Reference: patent US10421715B2, “Pleuromutilin derivative having 2-amino phenyl mercaptan side chain as well as preparation method and application thereof” (SOUTH CHINA AGRICULTURAL UNIVERSITY, priority 2016, dated 2019)
In brackets after ≈: the same amount, converted by molar mass. Read-outs that look alike come from different tables or passages of the source.

Legend:
Test in all cases: In-vitro bacteriostatic experiment, two-fold agar dilution MIC
Type in all cases: cell-based
[1] = system: E. Coli ATCC25922; settings: for MIC: Escherichia coli, read-out: MIC E. coli ATCC25922
Description: (§1) Minimum inhibitory concentrations (MIC) of a series of compounds obtained in the disclosure were measured by using a two-fold agar dilution method. An experimental control drug selected valnemulin, and valnemulin belongs to pleuromutilin antibiotics and is the most widely applied veterinary antibiotic in the pleuromutilin antibiotics at present. By using a multi-point inoculator, bacteria solution was inoculated into a culture dish containing drugs having different concentrations at a bacteria inoculating amount of 10^6 CFU/ml. A result was observed after incubation for 24 hours at 37° C., and the concentration of a compound in a culture dish without bacteria served as the minimum inhibitory concentration (MIC) of this compound.
(§2) Strains used in the experiment were E. Coli ATCC25922, Staphylococcus aureus ATCC29213, methicillin-resistant staphylococcus ATCC43300 and mycoplasma gallisepticum S6.
(§3) 25.6 mg of synthesized target compound was precisely weighed to be placed in 10 mL of volumetric flask and dissolved with a small amount of N,N-dimethylformamide and then a volume was metered with N,N-dimethylformamide to 10 mL, so as to prepare 2560 μg/mL stock solution. In addition, 25.6 mg of pleuromutilin, tiamulin, valnemulin and retapamulin were respectively and precisely weighed to be placed in 10 ml of volumetric flask, and a volume was metered with N,N-dimethylformamide to 10 mL, so as to prepare 2560 μg/mL control stock solution.
(§4) The control stock solution was diluted in a culture dish with a doubling dilution method, each culture dish contained 1 ml of medicine liquid, the medicine liquid is diluted to 20 ml with molten MH agar, so that final concentrations of subject compounds in a series of culture dishes were respectively 64, 32, 16, 8, 4, 2, 1, 0.5, 0.25, 0.125 and 0.0625 μg/ml.

[2] = system: methicillin-resistant staphylococcus ATCC43300; settings: for MIC: read-out: MIC MRSA ATCC43300
Description: as §1, §2, §3, §4

[3] = system: mycoplasma gallisepticum S6; settings: for MIC: Mycoplasmoides gallisepticum, read-out: MIC S6
Description: as §1, §2, §3, §4

[4] = system: Staphylococcus aureus ATCC29213; settings: for MIC: Staphylococcus aureus, read-out: MIC S. aureus ATCC29213
Description: as §1, §2, §3, §4

[5] = agar dilution, 10^6 CFU/ml, 24 hours at 37° C.
[6] = mycoplasma gallisepticum S6, agar dilution, 10^6 CFU/ml, 24 hours at 37° C.
[7] = ATCC25922, agar dilution, 10^6 CFU/ml, 24 hours at 37° C.
[8] = ATCC29213, agar dilution, 10^6 CFU/ml, 24 hours at 37° C.

Row | Structure (SMILES) | MIC E. coli ATCC25922 [1, 5] | MIC MRSA ATCC43300 [2, 5] | MIC S6 [3, 6] | MIC S. aureus ATCC29213 [4, 5] | also measured
1 | C=C[C@]1(C)C[C@@H](OC(=O)CSc2ccccc2NC(=O)c2ccccc2C)[C@]2(C)[C@H](C)CC[C@]3(CCC(=O)[C@H]32)[C@@H](C)[C@@H]1O [Compound 1] | >64 µg/mL | 0.25 µg/mL (≈ 0.414 µM) | 0.125 µg/mL (≈ 0.207 µM) | 0.25 µg/mL (≈ 0.414 µM) | –
2 | C=CC1(C)CC(OC(=O)CSc2ccccc2NC(=O)c2cccc(C)c2)C2(C)C(C)CCC3(CCC(=O)C32)C(C)C1O (centres unmarked) [Compound 2, 22-O-[2-(3-methylbenzamnido)phenyl] thioacetyl valnemulin] | >64 µg/mL | 0.5 µg/mL (≈ 0.828 µM) | 0.25 µg/mL (≈ 0.414 µM) | 1 µg/mL (≈ 1.66 µM) | –
3 | C=CC1(C)CC(OC(=O)CSc2ccccc2NC(=O)c2ccc(C)cc2)C2(C)C(C)CCC3(CCC(=O)C32)C(C)C1O (centres unmarked) [Compound 3, 22-O-[2-(4-methylbenzamido)phenyl] thioacetyl valnemulin] | >64 µg/mL | 0.5 µg/mL (≈ 0.828 µM) | 0.25 µg/mL (≈ 0.414 µM) | 0.5 µg/mL (≈ 0.828 µM) | –
4 | C=CC1(C)CC(OC(=O)CSc2ccccc2NC(=O)c2ccccc2F)C2(C)C(C)CCC3(CCC(=O)C32)C(C)C1O (centres unmarked) [Compound 4] | >64 µg/mL | 0.5 µg/mL (≈ 0.823 µM) | 0.25 µg/mL (≈ 0.411 µM) | 0.5 µg/mL (≈ 0.823 µM) | –
5 | C=CC1(C)CC(OC(=O)CSc2ccccc2NC(=O)c2cccc(F)c2)C2(C)C(C)CCC3(CCC(=O)C32)C(C)C1O (centres unmarked) [Compound 5, 22-O-[2-(3-fluorobenzamido)phenyl] thioacetyl valnemulin] | >64 µg/mL | 0.125 µg/mL (≈ 0.206 µM) | 0.125 µg/mL (≈ 0.206 µM) | 0.125 µg/mL (≈ 0.206 µM) | –
6 | C=CC1(C)CC(OC(=O)CSc2ccccc2NC(=O)c2ccc(F)cc2)C2(C)C(C)CCC3(CCC(=O)C32)C(C)C1O (centres unmarked) [Compound 6, 22-O-[2-(4-fluorobenzamido)phenyl] thioacetyl valnemulin] | >64 µg/mL | 1 µg/mL (≈ 1.65 µM) | 0.5 µg/mL (≈ 0.823 µM) | 1 µg/mL (≈ 1.65 µM) | –
7 | C=C[C@]1(C)C[C@@H](OC(=O)CSc2ccccc2NC(=O)c2ccccc2Cl)[C@]2(C)[C@H](C)CC[C@]3(CCC(=O)[C@H]32)[C@@H](C)[C@@H]1O [Compound 7] | >64 µg/mL | 0.5 µg/mL (≈ 0.801 µM) | 0.25 µg/mL (≈ 0.4 µM) | 0.5 µg/mL (≈ 0.801 µM) | –
8 | C=CC1(C)CC(OC(=O)CSc2ccccc2NC(=O)c2cccc(Cl)c2)C2(C)C(C)CCC3(CCC(=O)C32)C(C)C1O (centres unmarked) [Compound 8, 22-O-[2-(3-chlorobenzamido)phenyl] thioacetyl valnemulin] | >64 µg/mL | 0.25 µg/mL (≈ 0.4 µM) | 0.125 µg/mL (≈ 0.2 µM) | 0.25 µg/mL (≈ 0.4 µM) | –
9 | C=C[C@]1(C)C[C@@H](OC(=O)CSc2ccccc2NC(=O)c2ccc(Cl)cc2)[C@]2(C)[C@H](C)CC[C@]3(CCC(=O)[C@H]32)[C@@H](C)[C@@H]1O [Compound 9] | >64 µg/mL | 0.5 µg/mL (≈ 0.801 µM) | 0.25 µg/mL (≈ 0.4 µM) | 0.5 µg/mL (≈ 0.801 µM) | –
10 | C=CC1(C)CC(OC(=O)CSc2ccccc2NC(=O)c2ccccc2OC)C2(C)C(C)CCC3(CCC(=O)C32)C(C)C1O (centres unmarked) [Compound 10, 22-O-[2-(2-methoxybenzamido)phenyl] thioacetyl valnemulin] | >64 µg/mL | 0.5 µg/mL (≈ 0.807 µM) | 0.25 µg/mL (≈ 0.403 µM) | 1 µg/mL (≈ 1.61 µM) | –
11 | C=CC1(C)CC(OC(=O)CSc2ccccc2NC(=O)c2cccc(OC)c2)C2(C)C(C)CCC3(CCC(=O)C32)C(C)C1O (centres unmarked) [Compound 11, 22-O-[2-(3-methoxybenzamido)phenyl] thioacetyl valnemulin] | >64 µg/mL | 1 µg/mL (≈ 1.61 µM) | 0.25 µg/mL (≈ 0.403 µM) | 1 µg/mL (≈ 1.61 µM) | –
12 | C=C[C@]1(C)C[C@@H](OC(=O)CSc2ccccc2NC(=O)c2ccc(OC)cc2)[C@]2(C)[C@H](C)CC[C@]3(CCC(=O)[C@H]32)[C@@H](C)[C@@H]1O [Compound 12] | >64 µg/mL | 1 µg/mL (≈ 1.61 µM) | 0.5 µg/mL (≈ 0.807 µM) | 1 µg/mL (≈ 1.61 µM) | –
13 | C=C[C@]1(C)C[C@@H](OC(=O)CSc2ccccc2N)[C@]2(C)[C@H](C)CC[C@]3(CCC(=O)[C@H]32)[C@@H](C)[C@@H]1O [Compound 13] | – | – | – | – | MIC [1, 7]: > 64 µg/mL; MIC [2, 5]: 0.0156 µg/mL (≈ 0.0321 µM); antibacterial activity on methicillin-resistant staphylococcus (in words) ([2]; comparison with control drugs): obviously superior to that of valnemulin and retapamulin; MIC [3, 6]: 0.0156 µg/mL (≈ 0.0321 µM); MIC [4, 8]: 0.0156 µg/mL (≈ 0.0321 µM); antibacterial activity on staphylococcus (in words) ([4]; comparison with control drugs): obviously superior to that of valnemulin and retapamulin
14 | C=C[C@]1(C)C[C@@H](OC(=O)CO)[C@]2(C)[C@H](C)CC[C@]3(CCC(=O)[C@H]32)[C@@H](C)[C@@H]1O [Pleuromutilin] | – | – | – | – | MIC [1, 7]: > 64 µg/mL; MIC [2, 5]: 0.5 µg/mL (≈ 1.32 µM); MIC [3, 6]: 0.0625 µg/mL (≈ 0.165 µM); MIC [4, 8]: 1 µg/mL (≈ 2.64 µM)
15 | C=C[C@]1(C)C[C@@H](OC(=O)CS[C@@H]2C[C@H]3CC[C@@H](C2)N3C)[C@]2(C)[C@H](C)CC[C@]3(CCC(=O)[C@H]32)[C@@H](C)[C@@H]1O [Retapamulin, reference compound] | – | – | – | – | MIC ([2]; 24 h): 0.0625 µg/mL (≈ 0.121 µM); MIC ([4]; ATCC29213, 24 h): 0.0625 µg/mL (≈ 0.121 µM)
16 | C=C[C@]1(C)C[C@@H](OC(=O)CSCCN(CC)CC)[C@]2(C)[C@H](C)CC[C@]3(CCC(=O)[C@H]32)[C@@H](C)[C@@H]1O [Tiamulin, reference compound] | – | – | – | – | MIC [1, 7]: > 64 µg/mL; MIC [2, 5]: 0.5 µg/mL (≈ 1.01 µM); MIC [3, 6]: 0.0156 µg/mL (≈ 0.0316 µM); MIC [4, 8]: 0.5 µg/mL (≈ 1.01 µM)
17 | C=C[C@]1(C)C[C@@H](OC(=O)CSC(C)(C)CNC(=O)[C@H](N)C(C)C)[C@]2(C)[C@H](C)CC[C@]3(CCC(=O)[C@H]32)[C@@H](C)[C@@H]1O [Valnemulin, reference compound] | – | – | – | – | MIC ([1]; ATCC25922, 24 h): 32 µg/mL (≈ 56.7 µM); MIC ([2]; 24 h): 0.0625 µg/mL (≈ 0.111 µM); MIC ([3]; S6, 24 h): 0.0039 µg/mL (≈ 0.0069 µM); MIC ([4]; ATCC29213, 24 h): 0.0625 µg/mL (≈ 0.111 µM)
